ChEMBL document CHEMBL3102795, “Discovery of 1-oxa-4,9-diazaspiro[5.5]undecane-based trisubstituted urea derivatives as highly potent soluble epoxide hydrolase inhibitors and orally active drug candidates for treating of chronic kidney diseases” (Bioorg Med Chem Lett, 2014)
Values after ≈ are worked out from the molar mass of the structure shown.

How the values were obtained:
[1] = biological target: T1, Bifunctional epoxide hydrolase 2 (Rattus norvegicus, UniProt P80299); test: Inhibition of rat recombinant sEH expressed in baculovirus infected insect Sf9 cells using cyano(6-methoxynaphthalen-2-yl)methyl trans-[(3-phenyloxiran-2-yl)methyl] carbonate as substrate preincubated for 30 mins followed by substrate addition measured after 20 to 45 mins by fluorescence assay
T1 sequence (P80299 whole entry): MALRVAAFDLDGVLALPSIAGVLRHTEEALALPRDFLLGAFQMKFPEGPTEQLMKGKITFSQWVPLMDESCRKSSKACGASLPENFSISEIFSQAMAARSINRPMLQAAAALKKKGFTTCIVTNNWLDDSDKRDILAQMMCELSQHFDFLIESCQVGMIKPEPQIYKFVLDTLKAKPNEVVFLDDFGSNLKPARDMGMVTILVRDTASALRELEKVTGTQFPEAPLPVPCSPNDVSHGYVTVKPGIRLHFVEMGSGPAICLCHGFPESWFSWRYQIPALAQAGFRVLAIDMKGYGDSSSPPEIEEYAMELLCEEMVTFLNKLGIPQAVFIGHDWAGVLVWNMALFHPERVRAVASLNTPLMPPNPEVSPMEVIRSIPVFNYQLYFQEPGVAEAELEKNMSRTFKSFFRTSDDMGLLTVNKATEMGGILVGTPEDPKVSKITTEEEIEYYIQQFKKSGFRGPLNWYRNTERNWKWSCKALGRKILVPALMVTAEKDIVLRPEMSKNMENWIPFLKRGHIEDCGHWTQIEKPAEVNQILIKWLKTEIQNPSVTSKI

[2] = Solubility of the compound in simulated intestinal fluid compliant with Japanese pharmacopeia; type: ADME
[3] = biological target: T2, Bifunctional epoxide hydrolase 2 (Homo sapiens, UniProt P34913); test: Inhibition of human recombinant sEH expressed in baculovirus infected insect Sf9 cells using cyano(6-methoxynaphthalen-2-yl)methyl trans-[(3-phenyloxiran-2-yl)methyl] carbonate as substrate preincubated for 30 mins followed by substrate addition measured after 20 to 45 mins by fluorescence assay
T2 sequence (P34913 whole entry): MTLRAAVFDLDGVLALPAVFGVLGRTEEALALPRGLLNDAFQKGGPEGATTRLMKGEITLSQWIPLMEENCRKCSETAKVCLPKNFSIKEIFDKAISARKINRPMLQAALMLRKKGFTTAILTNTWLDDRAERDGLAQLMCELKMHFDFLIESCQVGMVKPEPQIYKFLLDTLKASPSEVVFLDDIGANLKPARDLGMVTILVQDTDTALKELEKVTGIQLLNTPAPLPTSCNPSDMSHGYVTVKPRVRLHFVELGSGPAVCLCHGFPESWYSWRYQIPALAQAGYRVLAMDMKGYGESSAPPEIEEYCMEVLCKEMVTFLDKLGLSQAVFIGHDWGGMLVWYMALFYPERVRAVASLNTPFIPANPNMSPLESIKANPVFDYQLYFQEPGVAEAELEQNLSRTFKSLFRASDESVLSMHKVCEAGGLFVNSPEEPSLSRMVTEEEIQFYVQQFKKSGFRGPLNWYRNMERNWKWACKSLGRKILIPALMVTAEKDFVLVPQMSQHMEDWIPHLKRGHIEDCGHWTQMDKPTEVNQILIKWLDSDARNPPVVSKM

Liver microsome = test: Metabolic stability in human liver microsomes measured per mg of protein; type: ADME
[4] = Solubility of the compound in simulated gastric fluid compliant with Japanese pharmacopeia; type: ADME
[5] = Volume of distribution at steady state in rat at 0.2 mg/kg, iv; type: ADME, organism-based; parameters: dose 0.2 mg/kg, route intravenous; settings: in vivo, read-out: Vdss
[6] = Cmax in rat at 1 mg/kg, po; type: ADME, organism-based; parameters: dose 1 mg/kg, route oral; settings: in vivo
[7] = Half life in rat at 0.2 mg/kg, iv; type: ADME, organism-based; parameters: dose 0.2 mg/kg, route intravenous; settings: in vivo
[8] = Drug uptake in rat at 0.2 mg/kg, iv at 5 mins; type: ADME, organism-based; parameters: dose 0.2 mg/kg, route intravenous; settings: in vivo, read-out: Drug uptake
[9] = Oral bioavailability in rat at 1 mg/kg; type: ADME, organism-based; settings: in vivo
[10] = Total clearance in rat at 0.2 mg/kg, iv; type: ADME, organism-based; parameters: dose 0.2 mg/kg, route intravenous; settings: in vivo
[11] = Tmax in rat at 1 mg/kg, po; type: ADME, organism-based; parameters: dose 1 mg/kg, route oral; settings: in vivo
[12] = AUC (0 to infinity) in rat at 0.2 mg/kg, iv; type: ADME, organism-based; parameters: time infinity, dose 0.2 mg/kg, route intravenous; settings: plasma
[13] = AUC (0 to infinity) in rat at 1 mg/kg, po; type: ADME, organism-based; parameters: time infinity, dose 1 mg/kg, route oral; settings: plasma

SMILES	IC50 [1]	solubility [2]	IC50 [3]	CLint (Liver microsome)	solubility [4]	Vd [5]	Cmax [6]	half-life [7]	concentration at 5 min [8]	bioavailability [9]	clearance [10]	Tmax [11]	AUC(0-inf) [12]	AUC(0-inf) [13]
O=C(Nc1ccc(C(F)(F)F)cc1)N1CCOC2(CCN(C(=O)c3ccc(Cl)cc3)CC2)C1	24.9 nM	0.023 mg/mL (≈ 47.7 µM)	1 nM	21 µL/min/mg	0.029 mg/mL (≈ 60.2 µM)									
O=C(Nc1ccc(OC(F)(F)F)cc1)N1CCOC2(CCN(C(=O)C3CCCCC3)CC2)C1	14.5 nM	0.063 mg/mL (≈ 134 µM)	0.6 nM	357 µL/min/mg	0.069 mg/mL (≈ 147 µM)									
CC(C)(C)C(=O)N1CCC2(CC1)CN(C(=O)Nc1ccc(C(F)(F)F)cc1)CCO2	12 nM	0.073 mg/mL (≈ 171 µM)	2.9 nM	98 µL/min/mg	0.076 mg/mL (≈ 178 µM)									
O=C(Nc1ccc(OC(F)(F)F)cc1)N1CCOC2(CCN(C(=O)c3cnoc3C3CC3)CC2)C1	22.2 nM	0.089 mg/mL (≈ 180 µM)	0.6 nM	87 µL/min/mg	0.086 mg/mL (≈ 174 µM)									
O=C1Cc2cc(C(=O)N3CCC4(CC3)CN(C(=O)Nc3ccc(OC(F)(F)F)cc3)CCO4)ccc2N1	> 20 nM	0.093 mg/mL (≈ 179 µM)	1.8 nM	29 µL/min/mg	0.096 mg/mL (≈ 185 µM)									
O=C(Nc1ccc(OC(F)(F)F)cc1)N1CCC2(CCCN(C(=O)c3c(F)cccc3F)C2)CC1			2.96 nM											
O=C(CC1CC1)N1CCC2(CC1)CN(C(=O)Nc1ccc(C(F)(F)F)cc1)CCO2	31.4 nM	0.079 mg/mL (≈ 186 µM)	2.1 nM	74 µL/min/mg	0.079 mg/mL (≈ 186 µM)									
O=C(Nc1ccc(C(F)(F)F)cc1)N1CCOC2(CCN(C(=O)c3cccc(Cl)c3)CC2)C1	36.9 nM	0.021 mg/mL (≈ 43.6 µM)	1.2 nM	100 µL/min/mg	0.026 mg/mL (≈ 54 µM)									
Cc1cnc(C(=O)N2CCC3(CC2)CN(C(=O)Nc2ccc(OC(F)(F)F)cc2)CCO3)cn1	8.8 nM	0.092 mg/mL (≈ 192 µM)	0.9 nM	12 µL/min/mg	0.091 mg/mL (≈ 190 µM)	1.82 L/kg	0.00864 µg/mL	1.53 h	0.134 µg/mL	11.1%	1.81 L/h/kg	1 h	0.111 µg·h/mL	0.0613 µg·h/mL
O=C(Nc1ccc(OC(F)(F)F)cc1)N1CCOC2(CCN(C(=O)c3cc(Cl)ccn3)CC2)C1	11.6 nM	0.089 mg/mL (≈ 178 µM)	0.6 nM	62 µL/min/mg	0.09 mg/mL (≈ 180 µM)									
O=C(Nc1ccc(OC(F)(F)F)cc1)N1CCCC2(CCN(C(=O)c3c(F)cccc3F)CC2)C1	3.3 nM	0.009 mg/mL (≈ 18.1 µM)	0.125 nM	602 µL/min/mg	0.009 mg/mL (≈ 18.1 µM)									
N#Cc1ccc(C(=O)N2CCC3(CC2)CN(C(=O)Nc2ccc(C(F)(F)F)cc2)CCO3)cc1	15 nM	0.082 mg/mL (≈ 174 µM)	1.9 nM	3 µL/min/mg	0.085 mg/mL (≈ 180 µM)									
CC(=O)Nc1ccccc1C(=O)N1CCC2(CC1)CN(C(=O)Nc1ccc(C(F)(F)F)cc1)CCO2	6.8 nM	0.093 mg/mL (≈ 184 µM)	0.8 nM	39 µL/min/mg	0.092 mg/mL (≈ 182 µM)									
